# Measured values taken from patent publication US20230021483A1, “[…] […] METHOD AND CLASSIFICATION OF PHARMACEUTICAL COMPONENTS BY USING TRANSCRIPTOMES” (National Institutes of Biomedical Innovation, Health and …, priority 2016, published 2023).
# Tested on: preferentially upregulated genes in LV, SP, LN
# Experiment: Z-score-based differential gene expression analysis (adjuvant group- or adjuvant-associated genes, 40 module mapping, TargetMine annotation)
# Assay type: in vivo, C57BL/6 mice
# Details: ID, LV
# Source text: Each sample's FC value was converted into a z-score on a gene basis by using the entire data set for each organ. The Z-score of the triplicates of interest were summed for each adjuvant. For example, the three sample z-score in the LV sample following cdiGMP administration was summed on a gene-by-gene basis, after which the summed scores of >3 genes were selected as relatively preferentially expressed genes in the LV after cdiGMP administration. The following threshold was applied for selections. […] G2^LV: ALM_IP(z>1) & bCD(z>1) & ENDCN(z>1) & FCA(z>1). […] G4^LV: MALP2s(z>3). […] G2^SP: ENDCN_x2+ENDCN_x3(z>2) & ALM_IP(z>3) & bCD(z>3). […] G4^SP: ADX_ID_x2+ADX_ID_x3(z>2) & ADX_IP(z>3) & MALP2s(z>3). […] G2^LN: bCD(z>3) & FCA(z>3). […] G5^LN: K3(z>1.5) & K3SPG_x1+K3SPG_x2(z>1) & D35_x1+D35_x3(z>1). G6^LN: AddaVax(z>3).
substance,measurement,setting,value
Poly_IC,"Adar 1425405_a_at (Group G1, Modules 20)",sample x1,3.45
same,"Adar 1434268_at (Group G1, Modules 20)",sample x1,2.82
same,"Ddx58 1436562_at (Group G1, Modules 20)",sample x1,2.92
same,"Ddx58 1456890_at (Group G1, Modules 20)",sample x1,3.02
same,"Eif2ak2 1422005_at (Group G1, Modules 20)",sample x1,2.89
same,"G3bp2 1421323_a_at (Group G1, Modules 20)",sample x1,2.83
same,"Gm9706///Isg15 1431591_s_at (Group G1, Modules 20)",sample x1,3.28
same,"H2-T10///H2-T22///H2-T9 1449875_s_at (Group G1, Modules 20)",sample x1,2.89
same,"Ifih1 1426276_at (Group G1, Modules 20)",sample x1,3.06
same,"Ifit1 1450783_at (Group G1, Modules 20)",sample x1,2.54
same,"Ifit3 1449025_at (Group G1, Modules 20)",sample x1,3.24
same,"Irf7 1417244_a_at (Group G1, Modules 20)",sample x1,3.53
same,"Irgm1 1418825_at (Group G1, Modules 20)",sample x1,2.78
same,"Mndal 1426906_at (Group G1, Modules 20)",sample x1,3.14
same,"Pml 1448757_at (Group G1, Modules 20)",sample x1,3.58
same,"Pml 1456103_at (Group G1, Modules 20)",sample x1,3.26
same,"Rnf213 1455500_at (Group G1, Modules 20)",sample x1,2.64
same,"Rsad2 1436058_at (Group G1, Modules 20)",sample x1,3
same,"Shisa5 1423986_a_at (Group G1, Modules 20)",sample x1,2.5
same,"Shisa5 1437503_a_at (Group G1, Modules 20)",sample x1,2.49
same,"Stat1 1450033_a_at (Group G1, Modules 20)",sample x1,2.73
same,"Stat1 1450034_at (Group G1, Modules 20)",sample x1,2.89
same,"Tdrd7 1426716_at (Group G1, Modules 20)",sample x1,3.28
same,"Tor1aip2 1418115_s_at (Group G1, Modules 20)",sample x1,2.38
same,"Tor1aip2 1418116_at (Group G1, Modules 20)",sample x1,2.73
same,"Tor1aip2 1435526_at (Group G1, Modules 20)",sample x1,2.88
same,"Trim12a 1437432_a_at (Group G1, Modules 20)",sample x1,3.39
same,"Uba7 1426970_a_at (Group G1, Modules 20)",sample x1,3
same,"Adar 1425405_a_at (Group G1, Modules 20)",sample x2,2.75
same,"Adar 1434268_at (Group G1, Modules 20)",sample x2,2.17
same,"Ddx58 1436562_at (Group G1, Modules 20)",sample x2,2.82
same,"Ddx58 1456890_at (Group G1, Modules 20)",sample x2,2.77
same,"Eif2ak2 1422005_at (Group G1, Modules 20)",sample x2,2.87
same,"G3bp2 1421323_a_at (Group G1, Modules 20)",sample x2,2.85
same,"Gm9706///Isg15 1431591_s_at (Group G1, Modules 20)",sample x2,3.62
same,"H2-T10///H2-T22///H2-T9 1449875_s_at (Group G1, Modules 20)",sample x2,3.28
same,"Ifih1 1426276_at (Group G1, Modules 20)",sample x2,3.34
same,"Ifit1 1450783_at (Group G1, Modules 20)",sample x2,2.35
same,"Ifit3 1449025_at (Group G1, Modules 20)",sample x2,3.25
same,"Irf7 1417244_a_at (Group G1, Modules 20)",sample x2,3.38
same,"Irgm1 1418825_at (Group G1, Modules 20)",sample x2,2.84
same,"Mndal 1426906_at (Group G1, Modules 20)",sample x2,2.4
same,"Pml 1448757_at (Group G1, Modules 20)",sample x2,3.3
same,"Pml 1456103_at (Group G1, Modules 20)",sample x2,2.5
same,"Rnf213 1455500_at (Group G1, Modules 20)",sample x2,3.01
same,"Rsad2 1436058_at (Group G1, Modules 20)",sample x2,3.3
same,"Shisa5 1423986_a_at (Group G1, Modules 20)",sample x2,2.99
same,"Shisa5 1437503_a_at (Group G1, Modules 20)",sample x2,2.66
same,"Stat1 1450033_a_at (Group G1, Modules 20)",sample x2,2.67
same,"Stat1 1450034_at (Group G1, Modules 20)",sample x2,3.04
same,"Tdrd7 1426716_at (Group G1, Modules 20)",sample x2,3.24
same,"Tor1aip2 1418115_s_at (Group G1, Modules 20)",sample x2,2.68
same,"Tor1aip2 1418116_at (Group G1, Modules 20)",sample x2,2.94
same,"Tor1aip2 1435526_at (Group G1, Modules 20)",sample x2,2.62
same,"Trim12a 1437432_a_at (Group G1, Modules 20)",sample x2,3.59
same,"Uba7 1426970_a_at (Group G1, Modules 20)",sample x2,3.13
same,"Adar 1425405_a_at (Group G1, Modules 20)",sample x3,1.58
same,"Adar 1434268_at (Group G1, Modules 20)",sample x3,1.28
same,"Ddx58 1436562_at (Group G1, Modules 20)",sample x3,1.64
same,"Ddx58 1456890_at (Group G1, Modules 20)",sample x3,1.87
same,"Eif2ak2 1422005_at (Group G1, Modules 20)",sample x3,1.83
same,"G3bp2 1421323_a_at (Group G1, Modules 20)",sample x3,1.31
same,"Gm9706///Isg15 1431591_s_at (Group G1, Modules 20)",sample x3,2.13
same,"H2-T10///H2-T22///H2-T9 1449875_s_at (Group G1, Modules 20)",sample x3,2.21
same,"Ifih1 1426276_at (Group G1, Modules 20)",sample x3,2.12
same,"Ifit1 1450783_at (Group G1, Modules 20)",sample x3,1.28
same,"Ifit3 1449025_at (Group G1, Modules 20)",sample x3,1.95
same,"Irf7 1417244_a_at (Group G1, Modules 20)",sample x3,2.38
same,"Irgm1 1418825_at (Group G1, Modules 20)",sample x3,1.84
same,"Mndal 1426906_at (Group G1, Modules 20)",sample x3,2.37
same,"Pml 1448757_at (Group G1, Modules 20)",sample x3,2
same,"Pml 1456103_at (Group G1, Modules 20)",sample x3,2.12
same,"Rnf213 1455500_at (Group G1, Modules 20)",sample x3,1.47
same,"Rsad2 1436058_at (Group G1, Modules 20)",sample x3,1.97
same,"Shisa5 1423986_a_at (Group G1, Modules 20)",sample x3,1.61
same,"Shisa5 1437503_a_at (Group G1, Modules 20)",sample x3,1.52
same,"Stat1 1450033_a_at (Group G1, Modules 20)",sample x3,1.92
same,"Stat1 1450034_at (Group G1, Modules 20)",sample x3,1.94
same,"Tdrd7 1426716_at (Group G1, Modules 20)",sample x3,1.44
same,"Tor1aip2 1418115_s_at (Group G1, Modules 20)",sample x3,1.13
same,"Tor1aip2 1418116_at (Group G1, Modules 20)",sample x3,0.96
same,"Tor1aip2 1435526_at (Group G1, Modules 20)",sample x3,1.58
same,"Trim12a 1437432_a_at (Group G1, Modules 20)",sample x3,2.9
same,"Uba7 1426970_a_at (Group G1, Modules 20)",sample x3,1.71
